The target of data set [1] is T1, recombinant human mGluR4a receptors (Homo sapiens, UniProt Q14833).
T1 construct: expressed in transfected cells
The data set is described as follows: mGluR4 assay on HEK-expressing human mGluR4: fluorescent cell based Ca2+ mobilization assay (FLIPR). The note with it: HEK-293 cells expressing hmGluR4; potentiation of EC25 glutamate; mean of at least three independent experiments in duplicate; read-out: Ca^2+ Flux (mean EC50). The text has this: mGluR4 Assay on HEK-Expressing Human mGluR4
The compounds of the present invention are positive allosteric modulators of mGluR4 receptor. Their activity was examined on recombinant human mGluR4a receptors by detecting changes in intracellular Ca^2+ concentration, using the fluorescent Ca^2+-sensitive dye Fluo4-(AM) and a Fluorometric Imaging Plate Reader (FLIPR, Molecular Devices, Sunnyvale, Calif.).
The cDNA encoding the human metabotropic glutamate receptor (hmGluR4), (accession number NM_000841.1, NCBI Nucleotide database browser), was subcloned into an expression vector containing also the hygromycin resistance gene. In parallel, the cDNA encoding a G protein allowing redirection of the activation signal to intracellular calcium flux was subcloned into a different expression vector containing also the puromycin resistance gene. Transfection of both these vectors into HEK293 cells with PolyFect reagent (Qiagen) according to supplier's protocol, and hygromycin and puromycin treatment allowed selection of antibiotic resistant cells which had integrated stably one or more copies of the plasmids. Positive cellular clones expressing hmGluR4 were identified in a functional assay measuring changes in calcium fluxes in response to glutamate or selective known mGluR4 orthosteric agonists and antagonists.
HEK-293 cells expressing hmGluR4 were maintained in media containing DMEM, dialyzed Fetal Calf Serum (10%), Glutamax™ (2 mM), Penicillin (100 units/mL), Streptomycin (100 μg/mL), Geneticin (100 μg/mL) and Hygromycin-B (40 μg/mL) and puromycin (1 μg/mL) at 37° C./5% CO2.
Human mGluR4 HEK-293 cells were plated out 24 hours prior to FLIPR^384 assay in black-walled, clear-bottomed, poly-L-ornithine-coated 384-well plates at a density of 25,000 cells/well in a glutamine/glutamate free DMEM medium containing foetal bovine serum (10%), penicillin (100 units/mL) and streptomycin (100 μg/mL) at 37° C./5% CO2.
On the day of the assay, the medium was aspirated and the cells were loaded with a 3 μM solution of Fluo-4-AM (LuBioScience, Lucerne, Switzerland) in 0.03% pluronic acid. After 1 hour at 37° C./5% CO2, the non incorporated dye was removed by washing cell plate with the assay buffer and the cells were left in the dark at room temperature for […] before testing. All assays were performed in a pH 7.4 buffered-solution containing 20 mM HEPES, 143 mM NaCl, 6 mM KCl, 1 mM MgSO4, 1 mM CaCl2, 0.125 mM sulfapyrazone and 0.1% glucose.
After 10 s of basal fluorescence recording, various concentrations of the compounds of the invention were added to the cells. Changes in fluorescence levels were first monitored for 180 s in order to detect any agonist activity of the compounds. Then the cells were stimulated by an EC25 glutamate concentration for an additional 110 s in order to measure enhancing activities of the compounds of the invention. EC25 glutamate concentration is the concentration giving 25% of the maximal glutamate response.
The concentration-response curves of representative compounds of the present invention were generated using the Prism GraphPad software (Graph Pad Inc, San Diego, USA). The curves were fitted to a four-parameter logistic equation: (Y=Bottom+(Top-Bottom)/(1+10^((Log EC50−X)*Hill Slope) allowing the determination of EC50 values.
The Table 4 below represents the mean EC50 obtained from at least three independent experiments of selected molecules performed in duplicate.
A general note: Calcium assays in cells follow changes in intracellular calcium, usually with a dye or a luminescent sensor.

T1 sequence (Q14833 33-912): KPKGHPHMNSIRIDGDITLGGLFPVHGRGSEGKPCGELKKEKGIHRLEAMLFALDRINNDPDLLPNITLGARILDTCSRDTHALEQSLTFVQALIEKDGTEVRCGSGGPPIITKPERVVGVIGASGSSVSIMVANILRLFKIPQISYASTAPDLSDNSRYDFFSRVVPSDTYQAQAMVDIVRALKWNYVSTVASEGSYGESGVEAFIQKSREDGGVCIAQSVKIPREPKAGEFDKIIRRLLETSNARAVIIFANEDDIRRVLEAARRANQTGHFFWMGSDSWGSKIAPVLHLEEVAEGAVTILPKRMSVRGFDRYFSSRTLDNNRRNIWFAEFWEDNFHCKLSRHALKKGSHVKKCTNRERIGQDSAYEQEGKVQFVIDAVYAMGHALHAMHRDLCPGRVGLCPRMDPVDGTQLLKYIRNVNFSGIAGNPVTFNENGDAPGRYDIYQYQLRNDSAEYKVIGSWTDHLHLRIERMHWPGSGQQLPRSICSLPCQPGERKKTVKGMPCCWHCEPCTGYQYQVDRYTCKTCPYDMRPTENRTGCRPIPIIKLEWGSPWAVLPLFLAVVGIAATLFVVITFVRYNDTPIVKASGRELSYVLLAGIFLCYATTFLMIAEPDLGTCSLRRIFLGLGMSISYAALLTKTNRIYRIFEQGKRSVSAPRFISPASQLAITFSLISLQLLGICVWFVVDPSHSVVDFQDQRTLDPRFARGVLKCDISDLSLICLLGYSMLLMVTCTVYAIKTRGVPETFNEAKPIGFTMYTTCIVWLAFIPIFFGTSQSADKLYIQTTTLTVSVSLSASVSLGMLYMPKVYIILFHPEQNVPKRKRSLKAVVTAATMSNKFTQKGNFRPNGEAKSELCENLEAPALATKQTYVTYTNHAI

Usually melting point stands for the temperature of the solid-liquid transition. The molecule `Cc1n[nH]cc1-c1csc(Oc2ncccc2F)n1` [Compound 1-8, 2-(3-Fluoropyridin-2-yloxy)-4-(3-methyl-1H-pyrazol-4-yl)thiazole] came in with a melting point of 160 °C. In general, EC50 refers to the concentration at which the effect is half-maximal. Regarding `FC(F)(F)c1n[nH]cc1-c1nsc(Oc2ccccn2)n1` [Compound 1-2, 5-(Pyridin-2-yloxy)-3-(3-(trifluoromethyl)-1H-pyrazol-4-yl)-1,2,4-thiadiazole], the melting point was 245 to 247 °C. Besides, the EC50 in data set [1] is under 100 nM.

In turn, `Cc1n[nH]cc1-c1csc(Oc2cccc(Cl)n2)n1` [Compound 1-7, 2-(6-Chloropyridin-2-yloxy)-4-(3-methyl-1H-pyrazol-4-yl)thiazole] displayed a melting point of 158 to 161 °C. Moreover, the EC50 in data set [1] was under 100 nM. For `N#Cc1sc(Oc2cccc(Cl)n2)nc1-c1cn[nH]c1` [Compound 1-21, 2-(6-Chloropyridin-2-yloxy)-4-(1H-pyrazol-4-yl)thiazole-5-carbonitrile], the EC50 in data set [1] was under 100 nM.

The molecule `c1ccc(Oc2nc(-c3cn[nH]c3)cs2)nc1` [Compound 1-6, 4-(1H-Pyrazol-4-yl)-2-(pyridin-2-yloxy)thiazole] showed a melting point of 151 to 152 °C.

As to `CC(=O)c1n[nH]cc1-c1csc(Oc2cccc(C)n2)n1` [Compound 1-9, 1-(4-(2-(6-Methylpyridin-2-yloxy)thiazol-4-yl)-1H-pyrazol-3-yl)ethanone], the melting point was 194 to 195 °C.

In the case of `Cc1n[nH]cc1-c1nsc(Oc2ccccc2)n1` [Compound 1-1, 3-(3-Methyl-1H-pyrazol-4-yl)-5-phenoxy-1,2,4-thiadiazole], the melting point lay in the range of 165 to 166 °C. Also, the EC50 in data set [1] is 1000 to 10000 nM. `Cc1[nH]ncc1-c1csc(Oc2ncccn2)n1` [Compound 1-4, 4-(5-Methyl-1H-pyrazol-4-yl)-2-(pyrimidin-2-yloxy)thiazole] returned a melting point of 177 °C.

Consider `Fc1ccc(Oc2nc(-c3cn[nH]c3)cs2)nc1` [Compound 1-18, 2-(5-Fluoropyridin-2-yloxy)-4-(1H-pyrazol-4-yl)thiazole], for which the EC50 in data set [1] is 100 to 1000 nM. The molecule `Cc1cccc(Oc2nc(-c3c[nH]nc3C)cs2)n1` [Compound 1-11, 4-(3-Methyl-1H-pyrazol-4-yl)-2-(6-methylpyridin-2-yloxy)thiazole] displayed a melting point of 138 to 139 °C. As to `Cc1cccc(Oc2nc(-c3cn[nH]c3)cs2)n1` [Compound 1-10, 2-(6-Methylpyridin-2-yloxy)-4-(1H-pyrazol-4-yl)thiazole], the melting point was 176 to 178 °C. Further, the EC50 in data set [1] was under 100 nM. The matching figures for `Fc1cccc(F)c1Oc1nc(-c2cn[nH]c2)cs1` [Compound 1-5, 2-(2,6-Difluorophenoxy)-4-(1H-pyrazol-4-yl)thiazole]: 131 to 135 °C and 100 to 1000 nM.

The values are drawn from patent US8513252B2, “Pyrazole derivatives and their use as positive allosteric modulators of metabotropic glutamate receptors” (Addex Pharma S.A., priority 2009, dated 2013).
